Results published in PubChem BioAssay (NCI).
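Step 1: Grow cells in 96-well plates. Step 2: Expose to compound for 48 hours at 5 concentrations. Step 3: Interpolate endpoints linearly; if unreached, use highest concentration. TGI is the concentration that stops growth completely.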

Experiments:
Experiment in all cases: growth of human tumour cells (NCI), 48 h
DU-145 prostate = test system: DU-145 prostate
HOP-62 NSCLC = test system: HOP-62 NSCLC
HT29 colon = test system: HT29 colon
MDA-MB-231 breast = test system: MDA-MB-231 breast
NCI-H460 lung = test system: NCI-H460 lung
SK-MEL-2 melanoma = test system: SK-MEL-2 melanoma
SK-OV-3 ovarian = test system: SK-OV-3 ovarian
SN12C renal = test system: SN12C renal
SW-620 colon = test system: SW-620 colon
UO-31 renal = test system: UO-31 renal

Row | SMILES | TGI (DU-145 prostate) [µM] | TGI (HOP-62 NSCLC) [µM] | TGI (HT29 colon) [µM] | TGI (MDA-MB-231 breast) [µM] | TGI (NCI-H460 lung) [µM] | TGI (SK-MEL-2 melanoma) [µM] | TGI (SK-OV-3 ovarian) [µM] | TGI (SN12C renal) [µM] | TGI (SW-620 colon) [µM] | TGI (UO-31 renal) [µM]
1 | CCCCCC(O)(CCCCC)CCCCCCCCC1=C(O)c2ccccc2C(=O)C1=O | 25.7 | 25.6 | 27.9 | 32 | 17.7 | 27.7 | > 64.1 | 23.5 | 32 | 28
2 | O=C(Cn1c(=O)oc2ccc(C(=O)c3ccccc3Cl)cc21)c1ccc([N+](=O)[O-])cc1 | > 100 | > 100 | > 100 | 79.7 | 55.7 | 41.6 | 66 | 65.5 | > 100 | > 100
3 | NNC(=O)CCC(NS(=O)(=O)c1ccc(Cl)cc1)C(=O)NN (stereo not given) | > 100 | > 100 | > 100 | > 100 | > 100 | > 100 | > 100 | > 100 | > 100 | > 100
4 | O=C(NN1C(=O)CSC1c1ccco1)c1ccncc1 (stereo not given) | > 100 | > 100 | > 100 | > 100 | > 100 | > 100 | > 100 | > 100 | > 100 | > 100
5 | NC(=O)C[C@H](NC(=O)C1(NC(=O)[C@H](Cc2ccc(CP(=O)(O)O)cc2)NC(=O)C(=O)O)CCCCC1)C(=O)NCCCc1cccc2ccccc12 | > 10 | > 10 | > 10 | > 10 | > 10 | > 10 | > 10 | > 10 | > 10 | > 10
6 | CCOC(=O)c1cn(CC)c2cc3c(cc2c1=O)CCS3(=O)=O | > 100 | > 100 | > 100 | > 100 | > 100 | > 100 | > 100 | > 100 | > 100 | > 100
7 | COc1cc(/C=c2/c3ccccc3n3c2cc(-c2ccccc2)[n+]3C)cc(OC)c1OC | 18.4 | 19.5 | 11.4 | 14.8 | 17.1 | 8.06 | 23.2 | 12 | 14.5 | > 35.9
8 | O=C(O)CN(CC(=O)O)Cc1ccn(-c2cccc(-n3ccc(CN(CC(=O)O)CC(=O)O)n3)n2)n1 | > 100 | > 100 | > 100 | > 100 | > 100 | > 100 | > 100 | > 100 | > 100 | > 100
9 | S=c1nc2sc3c(c2c(Nc2ccc(Br)cc2)[nH]1)CCN(N1CCc2c(sc4nc(=S)[nH]c(Nc5ccc(Br)cc5)c24)C1)C3 | > 50 | > 50 | > 50 | > 50 | > 50 | > 50 | > 50 | > 50 | > 50 | > 50
10 | Clc1cc(OCC23CC4CC(CC(C4)C2)C3)nc(OCC23CC4CC(CC(C4)C2)C3)n1 | > 100 | > 100 | > 100 | > 100 | > 100 | > 100 | > 100 | > 100 | > 100 | > 100
